According to patent US12264139B2, “Aryl sulfonamides as BLT1 antagonists” (Merck Sharp & Dohme LLC, priority 2015, dated 2025):

What follows are compounds tested against T1, human BLT1 receptor (Homo sapiens, UniProt Q15722) (assay: BLT-1 cAMP Assay). Conditions: HEK293 cells recombinantly expressing human BLT1; antagonist activity vs forskolin 4 μM and LTB4 2 nM; cAMP (CisBio kit).
T1 construct: expressed in transfected cells; host or cells: HEK293
Assay type: cell-based

T1 sequence (Q15722 whole entry): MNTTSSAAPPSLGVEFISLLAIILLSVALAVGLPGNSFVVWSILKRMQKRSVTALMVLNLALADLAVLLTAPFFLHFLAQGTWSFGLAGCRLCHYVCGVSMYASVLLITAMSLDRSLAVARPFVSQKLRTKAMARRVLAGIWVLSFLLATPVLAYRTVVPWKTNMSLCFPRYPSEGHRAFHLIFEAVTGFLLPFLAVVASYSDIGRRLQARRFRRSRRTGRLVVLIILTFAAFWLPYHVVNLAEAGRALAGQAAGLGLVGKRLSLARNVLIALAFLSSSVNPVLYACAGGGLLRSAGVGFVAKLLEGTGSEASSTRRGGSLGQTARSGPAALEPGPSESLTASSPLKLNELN

| SMILES | EC50 [nM] |
| --- | --- |
| CS(=O)(=O)Nc1ccccc1-c1ccc2c(c1)OC[C@H](Cc1ccccn1)[C@H]2O (single isomer, unassigned) [Example 72, N-{2-[(3S,4R or 3R,4S)-4-hydroxy-3-(pyridin-2-ylmethyl)-3,4-dihydro-2H-chromen-7-yl]phenyl}methanesulfonamide] | 2980 |
| CS(=O)(=O)Nc1ccccc1-c1ccc2c(c1)OC[C@@H](Cc1ccccn1)[C@@H]2O (single isomer, unassigned) [Example 73, N-{2-[(3R,4S or 3S,4R)-4-hydroxy-3-(pyridin-2-ylmethyl)-3,4-dihydro-2H-chromen-7-yl]phenyl}methanesulfonamide] | 193 |
| CC1(S(=O)(=O)Nc2ccccc2-c2ccc3c(c2)OCC(Cc2ccccn2)C3O)CC1 (single isomer, unassigned) [Example 75, N-(2-((3,4-trans)-4-hydroxy-3-(pyridin-2-ylmethyl)chroman-7-yl)phenyl)-1-methylcyclopropane-1-sulfonamide] | 235 |
| O=S(=O)(CC(F)(F)F)Nc1nccnc1-c1ccc2c(c1)OC[C@@H](Cc1ccccn1)[C@@H]2O (single isomer, unassigned) [Example 76, 2,2,2-Trifluoro-N-(3-((3,4-trans)-4-hydroxy-3-(pyridin-2-ylmethyl)chroman-7-yl)pyrazin-2-yl)ethanesulfonamide] | 1860 |
| O=S(=O)(CC(F)(F)F)Nc1ncccc1-c1ccc2c(c1)OC[C@@H](Cc1ccccn1)[C@@H]2O (single isomer, unassigned) [Example 77, 2,2,2-Trifluoro-N-(3-((3R,4S or 3S,4R)-4-hydroxy-3-(pyridin-2-ylmethyl)chroman-7-yl)pyridin-2-yl)ethanesulfonamide] | 118 |
| O=S(=O)(CC(F)(F)F)Nc1ncccc1-c1ccc2c(c1)OC[C@@H](Cc1ccccn1)[C@@H]2O (single isomer, unassigned) [Example 78, 2,2,2-Trifluoro-N-(3-((3S,4R or 3R,4S)-4-hydroxy-3-(pyridin-2-ylmethyl)chroman-7-yl)pyridin-2-yl)ethanesulfonamide] | 1870 |
| O=S(=O)(CC(F)(F)F)Nc1ccccc1-c1ccc2c(c1)OC[C@@H](Cc1ccccn1)[C@@H]2O (single isomer, unassigned) [Example 79, 2,2,2-Trifluoro-N-(2-((3R,4S or 3S,4R)-4-hydroxy-3-(pyridin-2-ylmethyl)chroman-7-yl)phenyl)ethanesulfonamide] | 35 |
| O=S(=O)(CC(F)(F)F)Nc1ccccc1-c1ccc2c(c1)OC[C@@H](Cc1ccccn1)[C@@H]2O (single isomer, unassigned) [Example 80, 2,2,2-Trifluoro-N-(2-((3S,4R or 3R,4S)-4-hydroxy-3-(pyridin-2-ylmethyl)chroman-7-yl)phenyl)ethanesulfonamide] | 481 |
| O=S(=O)(Nc1ccccc1-c1ccc2c(c1)OC[C@@H](Cc1ccccn1)[C@@H]2O)C(F)F (single isomer, unassigned) [Example 81, 1,1-Difluoro-N-(2-((3R,4S or 3S,4R)-4-hydroxy-3-(pyridin-2-ylmethyl)chroman-7-yl)phenyl)methanesulfonamide] | 15 |
| O=S(=O)(Nc1ccccc1-c1ccc2c(c1)OC[C@@H](Cc1ccccn1)[C@@H]2O)C(F)F (single isomer, unassigned) [Example 82, 1,1-Difluoro-N-(2-((3S,4R or 3R,4S)-4-hydroxy-3-(pyridin-2-ylmethyl)chroman-7-yl)phenyl)methanesulfonamide] | 119 |
| O=S(=O)(Nc1ccc(F)cc1-c1ccc2c(c1)OC[C@@H](Cc1ccccn1)[C@@H]2O)C(F)(F)F (single isomer, unassigned) [Example 83, 1,1,1-Trifluoro-N-(4-fluoro-2-((3,4-trans)-4-hydroxy-3-(pyridin-2-ylmethyl)chroman-7-yl)phenyl)methanesulfonamide] | 14 |
| O=S(=O)(Nc1ncc(F)cc1-c1ccc2c(c1)OC[C@@H](Cc1ccccn1)[C@@H]2O)C(F)(F)F (single isomer, unassigned) [Example 84, 1,1,1-Trifluoro-N-(5-fluoro-3-((3,4-trans)-4-hydroxy-3-(pyridin-2-ylmethyl)chroman-7-yl)pyridin-2-yl)methanesulfonamide] | 1610 |
| O=S(=O)(CC(F)(F)F)Nc1ncc(F)cc1-c1ccc2c(c1)OC[C@@H](Cc1ccccn1)[C@@H]2O (single isomer, unassigned) [Example 85] | 63 |
| O=S(=O)(Nc1ncccc1-c1ccc2c(c1)OC[C@@H](Cc1ccccn1)[C@@H]2O)C(F)F (single isomer, unassigned) [Example 86, 1,1-Difluoro-N-(3-((3,4-trans)-4-hydroxy-3-(pyridin-2-ylmethyl)chroman-7-yl)pyridin-2-yl)methanesulfonamide] | 156 |
| O=S(=O)(Nc1ncccc1-c1ccc2c(c1)OC[C@@H](Cc1ccccn1)[C@@H]2O)C(F)(F)F (single isomer, unassigned) [Example 87, 1,1,1-Trifluoro-N-(3-((3,4-trans)-4-hydroxy-3-(pyridin-2-ylmethyl)chroman-7-yl)pyridin-2-yl)methanesulfonamide] | 239 |
| O=S(=O)(CC(F)(F)F)Nc1ncc(C(F)(F)F)nc1-c1ccc2c(c1)OC[C@@H](Cc1ccccn1)[C@@H]2O (single isomer, unassigned) [Example 88, 2,2,2-Trifluoro-N-(3-((3,4-trans)-4-hydroxy-3-(pyridin-2-ylmethyl)chroman-7-yl)-5-(trifluoromethyl)pyrazin-2-yl)ethanesulfonamide] | 285 |
| O=S(=O)(Nc1nnc(Cl)cc1-c1ccc2c(c1)OC[C@H](Cc1ccccn1)[C@H]2O)C(F)(F)F (single isomer, unassigned) [Example 89, N-(6-chloro-4-((3R,4S or 3S,4R)-4-hydroxy-3-(pyridin-2-ylmethyl)chroman-7-yl)pyridazin-3-yl)-1,1,1-trifluoromethanesulfonamide] | 965 |
| O=S(=O)(Nc1nnccc1-c1ccc2c(c1)OC[C@@H](Cc1ccccn1)[C@@H]2O)C(F)(F)F (single isomer, unassigned) [Example 90, N-(4-((3,4-trans)-4-hydroxy-3-(pyridin-2-ylmethyl)chroman-7-yl)pyridazin-3-yl)-1,1,1-trifluoromethanesulfonamide] | 3080 |
| O=S(=O)(Nc1nnc(Cl)cc1-c1ccc2c(c1)OC[C@@H](Cc1ccccn1)[C@@H]2O)C(F)(F)F (single isomer, unassigned) [Example 91, N-(6-chloro-4-((3S,4R or 3R,4S)-4-hydroxy-3-(pyridin-2-ylmethyl)chroman-7-yl)pyridazin-3-yl)-1,1,1-trifluoromethanesulfonamide] | 2690 |
| CC(c1csc(-c2ccccc2)n1)[C@@H]1COc2cc(-c3ccccc3NS(=O)(=O)C(F)(F)F)ccc2[C@H]1O (single isomer, unassigned) [Example 92] | 80 |
| CC(c1csc(-c2ccccc2)n1)[C@@H]1COc2cc(-c3ccccc3NS(=O)(=O)C(F)(F)F)ccc2[C@H]1O (single isomer, unassigned) [Example 97] | 268 |
| CC(c1ccccn1)C1COc2cc(-c3cc(F)ccc3NS(=O)(=O)C(F)(F)F)ccc2C1O (single isomer, unassigned) [Example 100, 1,1,1-trifluoro-N-(4-fluoro-2-(4-hydroxy-3-(1-(pyridin-2-yl)ethyl)chroman-7-yl)phenyl) methanesulfonamide] | 72 |
| CC(c1ccccn1)C1COc2cc(-c3cc(F)ccc3NS(=O)(=O)C(F)(F)F)ccc2C1O (single isomer, unassigned) [Example 101, 1,1,1-trifluoro-N-(4-fluoro-2-(4-hydroxy-3-(1-(pyridin-2-yl)ethyl)chroman-7-yl)phenyl) methanesulfonamide] | 678 |
| CC(c1ccccn1)C1COc2cc(-c3cc(F)ccc3NS(=O)(=O)C(F)(F)F)ccc2C1O (single isomer, unassigned) [Example 102, 1,1,1-trifluoro-N-(4-fluoro-2-(4-hydroxy-3-(1-(pyridin-2-yl)ethyl)chroman-7-yl)phenyl) methanesulfonamide] | 78 |
| CC(c1ccccn1)C1COc2cc(-c3cc(F)ccc3NS(=O)(=O)C(F)(F)F)ccc2C1O (single isomer, unassigned) [Example 103, 1,1,1-trifluoro-N-(4-fluoro-2-(4-hydroxy-3-(1-(pyridin-2-yl)ethyl)chroman-7-yl)phenyl) methanesulfonamide] | 1310 |
| O=S(=O)(Nc1ccccc1-c1ccc2c(c1)OC[C@H](Cc1ccccn1)[C@H]2O)C(F)(F)F [Example 54, 1,1,1-trifluoro-N-{2-[(3S,4R)-4-hydroxy-3-(pyridin-2-ylmethyl)-3,4-dihydro-2H-chromen-7-yl]phenyl}-methanesulfonamide] | 55 |
| O=S(=O)(Nc1ccccc1-c1ccc2c(c1)OC[C@@H](Cc1ccccn1)[C@@H]2O)C(F)(F)F [Example 55, 1,1,1-trifluoro-N-{2-[(3R,4S)-4-hydroxy-3-(pyridin-2-ylmethyl)-3,4-dihydro-2H-chromen-7-yl]phenyl}-methanesulfonamide] | 2020 |
| CC(c1ccccn1)C1COc2cc(-c3cc(F)ccc3NS(=O)(=O)C(F)(F)F)ccc2C1O (stereo not shown) [Example 99, 1,1,1-trifluoro-N-(4-fluoro-2-(4-hydroxy-3-(1-(pyridin-2-yl)ethyl)chroman-7-yl)phenyl) methanesulfonamide] | 1 |
